Values of other authors as cited in patent US20190175510A1, “PHARMACEUTICAL MATRIX FORMULATIONS COMPRISING DIMETHYL FUMARATE” (BIOGEN MA INC., priority 2014, published 2019).
Counter-ions that a name gives are not always drawn.

Conditions: species not stated

In the case of `COC(=O)/C=C/C(=O)O` [MMF, monomethyl fumarate], the “half-life of MMF” value is listed as “approximately 1 hour”.
